For this test, the target named is T1, human CaV3.2 (Homo sapiens, UniProt O95180).
T1 construct: expressed in transfected cells
Kind of test: IonWorks screen for hCaV3.2 (T-type calcium current, voltage clamp). Type of test: cell-based. The conditions noted are these: IonWorks HT, HEK cells, 10 min incubation, pulse 10, 8-point curve; read-out: IW hCav3 2 IC50. The source says: Functional evaluation of voltage-gated ion channels can be used to determine potency and/or single concentration efficacy of the Azetidinone Derivatives of the present invention. Two different methodologies can be used to measure ion currents: the lonWorks HT (Molecular Devices, Sunnyvale, Calif.) a moderate throughput voltage clamp screening platform that utilizes 96-well compound plates and conventional whole cell patch clamp for lower throughput, higher fidelity determinations.
HEK cells are transiently transfected and then selected for stable heterologous expression of different channel proteins of interest. Calcium channel cell lines expressed a resting potassium current, human Kir2.1, and the pore forming α-subunit of voltage-gated calcium channels. In the case of CaV2.1 cells the auxiliary subunit, β2a, is also expressed. Calcium channel lines that are used to generate the data will express either human CaV3.2, rat CaV3.2 or human CaV2.1. The human heart sodium channel, hNaV1.5, are stably expressed in CHO cells.
Cell lines can be grown at 37° C. in humidified incubators, equilibrated with 95% air/5% CO2. CHO cells can be grown in Ham's F-12 medium. HEK cells can be grown in DMEM. All media are supplemented with 10% heat-inactivated fetal bovine serum, penicillin, streptomycin and appropriate selection antibiotics (zeocin, geneticin and/or hygromycin). Cells are passaged when 80% confluent or less.
IonWorks Screen for hCaV3.2
The extracellular buffer for experiments using this instrument contained the following (mM) (NaCl 125, HEPES 10, KCl 5.4, CaCl2 1.8, MgCl2 1.8, 0.2 BaCl2 pH 7.35). The lonWorks uses amphotericin to gain electrical access to the cell interior. The internal solution contained (mM concentrations): 130 K-gluconate, 20 KCl, 5 HEPES-KOH (pH 7.25), 2 CaCl2, 1 MgCl2. Amphotericin added at 5 mg in 65 mL when present (in 650 μL DMSO). All internal and external solutions for this experiment contain 1% DMSO. Cells were acutely trypsinized from a T-75 flask and resuspended in extracellular buffer at a density of 2×10^5 cells/mL.
Experiments were performed at room temperature. Transmembrane potential was held at −100 mV for 5 seconds prior to running the voltage protocol. During this time leak currents were measured during a step to −110 mV (200 milliseconds). T-type calcium currents were activated with a 250 millisecond step to −20 mV. This depolarization step was repeated for a total of 10 pulses with an interpulse interval of 1 second. Data were excluded if the following acceptance criteria were not met: total resistance for the pre-compound scan>65 MΩ, pre-compound current>250 pA, post compound total resistance>50 MΩ.
T-type currents were measured as the peak inward current minus the current at the end of the 250 msec step to −20 mV. After the recoding configuration was established there was a pre-compound measurement of current amplitude. Compound was added as a 3× solution containing 1% DMSO. After incubation with compound for 10 minutes currents were measured again. The current amplitude after compound addition was divided by the pre-compound current for pulse 10 to determine the fraction of current remaining after compound addition. For each compound, 8-point concentration-effect relationships were measured with ½ log serial dilutions.
On the technique in general: Patch clamp records ionic current or voltage across a cell membrane.

These results are taken from patent publication US20080076751A1, “Azetidinone Derivatives and Methods of Use Thereof” (priority 2006, published 2008).

T1 sequence (O95180 whole entry): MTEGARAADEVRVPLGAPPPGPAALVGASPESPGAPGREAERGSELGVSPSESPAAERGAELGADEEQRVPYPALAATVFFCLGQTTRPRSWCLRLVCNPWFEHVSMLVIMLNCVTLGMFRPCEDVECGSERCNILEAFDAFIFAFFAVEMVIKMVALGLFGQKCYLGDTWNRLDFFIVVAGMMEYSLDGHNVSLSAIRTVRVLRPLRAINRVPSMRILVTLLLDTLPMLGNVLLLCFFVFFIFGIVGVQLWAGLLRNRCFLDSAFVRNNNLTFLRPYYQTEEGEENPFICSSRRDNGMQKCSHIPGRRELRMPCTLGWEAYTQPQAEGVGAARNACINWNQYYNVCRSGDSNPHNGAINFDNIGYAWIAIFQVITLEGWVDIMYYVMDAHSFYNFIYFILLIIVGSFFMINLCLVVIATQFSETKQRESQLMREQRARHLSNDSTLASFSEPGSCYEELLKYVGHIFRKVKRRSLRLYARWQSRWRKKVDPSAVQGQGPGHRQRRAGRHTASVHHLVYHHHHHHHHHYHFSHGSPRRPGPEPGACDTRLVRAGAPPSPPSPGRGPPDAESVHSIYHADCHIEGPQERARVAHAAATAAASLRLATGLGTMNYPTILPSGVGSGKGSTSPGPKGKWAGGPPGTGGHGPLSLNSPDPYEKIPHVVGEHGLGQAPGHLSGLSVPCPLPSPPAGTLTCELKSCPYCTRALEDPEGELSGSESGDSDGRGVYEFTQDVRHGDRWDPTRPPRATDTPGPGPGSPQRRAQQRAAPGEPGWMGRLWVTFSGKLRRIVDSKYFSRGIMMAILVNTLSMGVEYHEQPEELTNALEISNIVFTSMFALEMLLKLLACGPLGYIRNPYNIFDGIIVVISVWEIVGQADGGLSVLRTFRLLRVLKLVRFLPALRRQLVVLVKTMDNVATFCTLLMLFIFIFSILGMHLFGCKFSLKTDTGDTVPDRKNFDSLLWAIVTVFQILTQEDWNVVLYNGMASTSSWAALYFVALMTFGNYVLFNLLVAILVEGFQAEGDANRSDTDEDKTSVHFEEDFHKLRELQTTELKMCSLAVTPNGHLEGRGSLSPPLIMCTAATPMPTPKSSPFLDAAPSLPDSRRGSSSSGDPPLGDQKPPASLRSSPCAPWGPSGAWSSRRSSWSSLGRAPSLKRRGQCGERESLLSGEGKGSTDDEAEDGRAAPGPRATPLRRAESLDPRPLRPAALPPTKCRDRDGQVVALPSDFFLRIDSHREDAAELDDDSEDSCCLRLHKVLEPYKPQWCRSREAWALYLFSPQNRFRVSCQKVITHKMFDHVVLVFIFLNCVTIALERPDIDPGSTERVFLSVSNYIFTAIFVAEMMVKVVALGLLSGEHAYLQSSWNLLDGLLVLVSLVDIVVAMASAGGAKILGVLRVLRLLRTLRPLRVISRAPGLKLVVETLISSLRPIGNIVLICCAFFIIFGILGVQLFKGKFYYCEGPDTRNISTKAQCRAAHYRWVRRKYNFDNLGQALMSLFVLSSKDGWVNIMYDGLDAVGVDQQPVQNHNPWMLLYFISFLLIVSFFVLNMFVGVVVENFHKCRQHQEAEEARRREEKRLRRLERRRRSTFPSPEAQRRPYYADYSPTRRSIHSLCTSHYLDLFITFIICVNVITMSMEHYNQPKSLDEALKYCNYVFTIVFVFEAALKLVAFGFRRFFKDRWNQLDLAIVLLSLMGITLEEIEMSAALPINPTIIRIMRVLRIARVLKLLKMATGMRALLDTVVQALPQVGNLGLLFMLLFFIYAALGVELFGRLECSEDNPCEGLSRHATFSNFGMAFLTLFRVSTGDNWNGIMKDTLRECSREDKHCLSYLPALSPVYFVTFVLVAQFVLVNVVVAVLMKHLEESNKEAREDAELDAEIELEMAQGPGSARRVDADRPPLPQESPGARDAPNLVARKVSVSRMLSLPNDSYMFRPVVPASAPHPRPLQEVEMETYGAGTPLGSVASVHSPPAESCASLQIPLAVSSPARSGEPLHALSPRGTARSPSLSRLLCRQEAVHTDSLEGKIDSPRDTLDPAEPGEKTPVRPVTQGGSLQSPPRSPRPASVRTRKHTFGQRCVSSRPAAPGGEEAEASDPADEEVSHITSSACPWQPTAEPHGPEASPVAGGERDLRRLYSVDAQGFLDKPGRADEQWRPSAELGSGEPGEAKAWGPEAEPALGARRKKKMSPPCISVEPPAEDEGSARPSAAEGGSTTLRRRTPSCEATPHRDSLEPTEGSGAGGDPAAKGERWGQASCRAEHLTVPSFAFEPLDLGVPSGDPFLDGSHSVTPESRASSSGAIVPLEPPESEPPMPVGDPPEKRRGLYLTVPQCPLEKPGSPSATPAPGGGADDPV

Turning to `CC[C@H](C)[C@H](NC(=O)N1CCC2(CC1)C(=O)N(C(C)C)C2c1ccc(Br)cc1)C(=O)OC` (some centres unmarked), the IC50 turned out to be 277 nM.

Turning to `CCC(C)[C@H](NC(=O)N1CCC2(CC1)C(=O)N(c1ccc(F)c(Cl)c1)C2c1ccc(Br)cn1)C(=O)OC` (some centres unmarked), the IC50 amounted to 100 nM. The same measure for `CCC(C)[C@H](NC(=O)N1CCC2(CC1)C(=O)N(c1ccc(F)c(Cl)c1)C2c1ccc(-c2cccnc2)cn1)C(=O)OC` (some centres unmarked): 577 nM; for `CCC(C)[C@H](NC(=O)N1CCC2(CC1)C(=O)N(c1ccc(F)c(Cl)c1)C2c1ccc(-c2ccncc2)cn1)C(=O)OC` (some centres unmarked): 634 nM. The same measure for `CCC(C)[C@H](NC(=O)N1CCC2(CC1)C(=O)N(c1ccc(F)c(Cl)c1)C2c1ccc(-c2ccccc2)cn1)C(=O)OC` (some centres unmarked): 84 nM; for `C[C@H](NC(=O)N1CCC2(CC1)C(=O)N(c1ccc(F)c(Cl)c1)C2c1ccc(Br)cn1)c1ccc(F)cc1` (some centres unmarked): 136 nM. For `O=C(Nc1cc(F)cc(F)c1)N1CCC2(CC1)C(=O)N(c1ccc(F)c(Cl)c1)C2c1ccc(Br)cn1` (centres unmarked) the value was 52.5 nM; for `CCC(C)[C@H](NC(=O)N1CCC2(CC1)C(=O)N(c1ccc(F)c(Cl)c1)C2c1ccc(C#N)cn1)C(=O)OC` (some centres unmarked), 260 nM; for `N#Cc1cncc(N2C(=O)C3(CCN(C(=O)Nc4cccc(C(F)(F)F)c4)CC3)C2c2ccccn2)c1` (centres unmarked), 1260 nM.

For the compound `O=C(Nc1cccc(Cl)c1)N1CCC2(CC1)C(=O)N(c1ccc(F)c(Cl)c1)C2c1ccccn1` (centres unmarked), the IC50 was found to be 185 nM. For `O=C(Nc1cc(F)cc(F)c1)N1CCC2(CC1)C(=O)N(c1cccc(Cl)c1)C2c1cccc[n+]1O` (centres unmarked) the value was 157 nM; for `C[C@H](NC(=O)N1CCC2(CC1)C(=O)N(c1cncc(Cl)c1)C2c1ccccn1)c1ccc(F)cc1` (some centres unmarked), 3240 nM. Consider `N#Cc1cccc(NC(=O)N2CCC3(CC2)C(=O)N(c2ccc(F)c(Cl)c2)C3c2ccccn2)c1` (centres unmarked), for which the IC50 worked out at 358 nM. As for `O=C(Nc1cc(F)cc(F)c1)N1CCC2(CC1)C(=O)N(c1cncc(Cl)c1)C2c1ccccn1` (centres unmarked), the IC50 was 518 nM. On to `O=C(Nc1cccc(F)c1)N1CCC2(CC1)C(=O)N(c1ccc(F)c(Cl)c1)C2c1ccccn1` (centres unmarked), for which the IC50 stood at 371 nM. On to `N#Cc1cncc(N2C(=O)C3(CCN(C(=O)Nc4cc(F)cc(F)c4)CC3)C2c2ccccn2)c1` (centres unmarked), for which the IC50 was determined as 2380 nM. The same measure for `N#Cc1cccc(NC(=O)N2CCC3(CC2)C(=O)N(c2cncc(Cl)c2)C3c2ccccn2)c1` (centres unmarked): 1480 nM; for `O=C(Nc1cc(F)cc(F)c1)N1CCC2(CC1)C(=O)N(c1cncc(F)c1)C2c1ccccn1` (centres unmarked): 2100 nM; for `CC[C@H](C)[C@H](NC(=O)N1CCC2(CC1)C(=O)N(c1cncnc1)C2c1ccccn1)C(=O)OC` (some centres unmarked): 2610 nM.

For `C[C@H](NC(=O)N1CCC2(CC1)C(=O)N(c1cncnc1)C2c1ccccn1)c1ccc(F)cc1` (some centres unmarked), the IC50 is 2010 nM. The same measure for `O=C(Nc1cc(F)cc(F)c1)N1CCC2(CC1)C(=O)N(c1ccccn1)C2c1ccccn1` (centres unmarked): 1160 nM; for `O=C(Nc1cccnc1)N1CCC2(CC1)C(=O)N(c1cccc(Cl)c1)C2c1ccccn1` (centres unmarked): 1120 nM; for `CC[C@H](C)[C@H](NC(=O)N1CCC2(CC1)C(=O)N(c1cccc(F)c1)C2c1ccc(Cl)cc1)C(=O)OC(C)C` (some centres unmarked): 45 nM. Turning to `C[C@@H](NC(=O)N1CCC2(CC1)C(=O)N(c1cccc(F)c1)C2c1ccc(Cl)cc1)c1ccc(F)cc1` (some centres unmarked), the IC50 worked out at 675 nM.

Consider `COC(=O)[C@H](COC(C)(C)C)NC(=O)N1CCC2(CC1)C(=O)N(c1cccc(F)c1)C2c1ccc(Cl)cc1` (some centres unmarked), for which the IC50 turned out to be 251 nM. For `CC[C@H](NC(=O)N1CCC2(CC1)C(=O)N(c1cccc(F)c1)C2c1ccc(Cl)cc1)c1ccccc1` (some centres unmarked) the value was 224 nM; for `C[C@H](NC(=O)N1CCC2(CC1)C(=O)N(c1cccc(F)c1)C2c1ccc(Cl)cc1)c1ccccc1` (some centres unmarked), 139 nM; for `CC[C@H](C)[C@@H](C#N)NC(=O)N1CCC2(CC1)C(=O)N(c1cccc(F)c1)C2c1ccc(Cl)cc1` (some centres unmarked), 35 nM. For the compound `O=C(NCc1cccc(F)c1)N1CCC2(CC1)C(=O)N(c1cccc(F)c1)C2c1ccc(Cl)cc1` (centres unmarked), the half-inhibitory concentration (IC50) amounted to 538 nM. With `C[C@@H](NC(=O)N1CCC2(CC1)C(=O)N(c1cccc(F)c1)C2c1ccc(Cl)cc1)c1ccccc1` (some centres unmarked), the IC50 came to 351 nM. The same measure for `C[C@H](NC(=O)N1CCC2(CC1)C(=O)N(c1cccc(F)c1)C2c1ccc(Cl)cc1)c1ccc(F)cc1` (some centres unmarked): 82 nM.

Take `CC(C)CN1C(=O)C2(CCN(C(=O)N[C@@H](C)c3ccc(F)cc3)CC2)C1c1ccc(Cl)cc1` (some centres unmarked): the IC50 was found to be 1830 nM. The same measure for `CS(=O)(=O)c1ccccc1N1C(=O)C2(CCN(C(=O)Nc3cc(F)cc(F)c3)CC2)C1c1ccc(Cl)cc1` (centres unmarked): 94 nM.

Take `O=C(NCc1ccccc1F)N1CCC2(CC1)C(=O)N(c1cccc(F)c1)C2c1ccc(Cl)cc1` (centres unmarked): the half-inhibitory concentration (IC50) was determined as 269 nM. The same measure for `C[C@H](NC(=O)N1CCC2(CC1)C(=O)N(c1ccccc1S(C)(=O)=O)C2c1ccc(Cl)cc1)c1ccc(F)cc1` (some centres unmarked): 611 nM. Regarding `CC[C@H](C)[C@H](NC(=O)N1CCC2(CC1)C(=O)N(c1cccc(F)c1)C2c1ccc(Cl)cc1)C(=O)NC` (some centres unmarked), the IC50 was determined as 182 nM. The same measure for `CC[C@H](C)[C@H](NC(=O)N1CCC2(CC1)C(=O)N(c1ccccc1S(C)(=O)=O)C2c1ccc(Cl)cc1)C(=O)OC` (some centres unmarked): 109 nM.

Take `CC[C@H](C)[C@H](NC(=O)N1CCC2(CC1)C(=O)N(c1cccc(F)c1)C2c1ccc(Cl)cc1)C(N)=O` (some centres unmarked): the IC50 was 965 nM. For `COC(=O)[C@H](C)NC(=O)N1CCC2(CC1)C(=O)N(c1cccc(F)c1)C2c1ccc(Cl)cc1` (some centres unmarked) the value was 827 nM; for `C[C@H](NC(=O)N1CCC2(CC1)C(=O)N(c1cncnc1)C2c1ccc(Cl)cc1)c1ccc(F)cc1` (some centres unmarked), 2330 nM; for `CC(NC(=O)N1CCC2(CC1)C(=O)N(c1cccc(F)c1)C2c1ccc(Cl)cc1)c1ccccn1` (centres unmarked), 2170 nM. For `CC(NC(=O)N1CCC2(CC1)C(=O)N(c1cccc(F)c1)C2c1ccc(Cl)cc1)c1ccncc1` (centres unmarked) the value was 694 nM; for `CC(NC(=O)N1CCC2(CC1)C(=O)N(c1cccc(F)c1)C2c1ccc(Cl)cc1)c1cccnc1` (centres unmarked), 2460 nM; for `O=C(NCc1ccccn1)N1CCC2(CC1)C(=O)N(c1cccc(F)c1)C2c1ccc(Cl)cc1` (centres unmarked), 1330 nM.

On to `C[C@H](NC(=O)N1CCC2(CC1)C(=O)N(c1cncnc1)C2c1cccnc1)c1ccc(F)cc1` (some centres unmarked), for which the IC50 turned out to be 2590 nM.

`CC[C@H](C)[C@H](NC(=O)N1CCC2(CC1)C(=O)N(c1cccc(F)c1)C2c1ccc(Cl)cc1)C(=O)OC` (single isomer, unassigned): the 50% inhibitory concentration (IC50) stood at 57 nM. The same measure for `N#Cc1cccc(NC(=O)N2CCC3(CC2)C(=O)N(c2cccc(F)c2)C3c2ccc(Cl)cc2)c1` (single isomer, unassigned): 183 nM; for `O=C(Nc1cc(F)cc(F)c1)N1CCC2(CC1)C(=O)N(c1cccc(F)c1)C2c1ccc(Cl)cc1` (single isomer, unassigned): 390 nM. For `O=C(Nc1cccc(C(F)(F)F)c1)N1CCC2(CC1)C(=O)N(c1ccc(F)c(Cl)c1)C2c1ccccn1` (centres unmarked) [drawing 560] the value was 4.33 nM; for `O=C(Nc1cccc(C(F)(F)F)c1)N1CCC2(CC1)C(=O)N(c1ccc(F)c(Cl)c1)C2c1ccccn1` (centres unmarked) [drawing 561], 83 nM. For `O=C(Nc1cccc(C(F)(F)F)c1)N1CCC2(CC1)C(=O)N(c1cncc(Cl)c1)C2c1ccccn1` (centres unmarked) [drawing 562] the value was 155 nM; for `O=C(Nc1cccc(C(F)(F)F)c1)N1CCC2(CC1)C(=O)N(c1cccc(Cl)c1)C2c1ccccn1` (centres unmarked) [drawing 563], 95.5 nM; for `O=C(Nc1cccc(C(F)(F)F)c1)N1CCC2(CC1)C(=O)N(c1cccc(Cl)c1)C2c1ccccn1` (centres unmarked) [drawing 564], 19.5 nM. As for `N#Cc1cc(F)cc(NC(=O)N2CCC3(CC2)C(=O)N(c2ccc(F)c(Cl)c2)C3c2ccccn2)c1` (centres unmarked) [drawing 565], the IC50 came to 17.5 nM. `N#Cc1cccc(N2C(=O)C3(CCN(C(=O)Nc4cccc(C(F)(F)F)c4)CC3)C2c2ccccn2)c1` (centres unmarked) [drawing 567]: the IC50 turned out to be 371 nM. For the compound `N#Cc1cccc(N2C(=O)C3(CCN(C(=O)Nc4cccc(C(F)(F)F)c4)CC3)C2c2ccccn2)c1` (centres unmarked) [drawing 568], the IC50 was 51 nM.

One may read the IC50 as the concentration that inhibits the measured activity by half.
